Settings: Liquid

CCn1cc[n+](C)c1.C[C@H](O)C(=O)[O-] [3-ethyl-1-methylimidazolium (S)-2-hydroxypropanoate]
Settings | mass density [kg/m3]
293.15 K, 101.33 kPa | 1149.7
298.15 K, 101.33 kPa | 1146.1
303.15 K, 101.33 kPa | 1142.5
308.15 K, 101.33 kPa | 1139
312.6 K, 100 kPa | 1136
312.6 K, 10000 kPa | 1140
312.6 K, 20000 kPa | 1144
312.6 K, 30000 kPa | 1148
312.6 K, 40000 kPa | 1151
312.6 K, 50000 kPa | 1155
312.6 K, 60000 kPa | 1158
312.6 K, 70000 kPa | 1162
312.6 K, 80000 kPa | 1165
312.6 K, 90000 kPa | 1168
312.6 K, 100000 kPa | 1172
312.6 K, 110000 kPa | 1175
312.6 K, 120000 kPa | 1178
312.6 K, 130000 kPa | 1181
312.6 K, 140000 kPa | 1183
312.6 K, 150000 kPa | 1186
312.6 K, 160000 kPa | 1189
312.6 K, 170000 kPa | 1192
312.6 K, 180000 kPa | 1195
312.6 K, 190000 kPa | 1197
312.6 K, 200000 kPa | 1200
313.15 K, 101.33 kPa | 1135.6
318.15 K, 101.33 kPa | 1132.2
323.15 K, 101.33 kPa | 1128.8
328.15 K, 101.33 kPa | 1125.4
332.1 K, 10000 kPa | 1126
332.1 K, 20000 kPa | 1131
332.1 K, 30000 kPa | 1135
332.1 K, 40000 kPa | 1139
332.1 K, 50000 kPa | 1142
332.1 K, 60000 kPa | 1146
332.1 K, 70000 kPa | 1149
332.1 K, 80000 kPa | 1153
332.1 K, 90000 kPa | 1156
332.1 K, 100000 kPa | 1159
332.1 K, 110000 kPa | 1163
332.1 K, 120000 kPa | 1166
332.1 K, 130000 kPa | 1169
332.1 K, 140000 kPa | 1172
332.1 K, 150000 kPa | 1175
332.1 K, 160000 kPa | 1178
332.1 K, 170000 kPa | 1180
332.1 K, 180000 kPa | 1183
332.1 K, 190000 kPa | 1186
332.1 K, 200000 kPa | 1189
333.15 K, 101.33 kPa | 1122.1
338.15 K, 101.33 kPa | 1118.7
343.15 K, 101.33 kPa | 1115.4
348.15 K, 101.33 kPa | 1112.1
352.1 K, 10000 kPa | 1113
352.1 K, 20000 kPa | 1118
352.1 K, 30000 kPa | 1122
352.1 K, 40000 kPa | 1126
352.1 K, 50000 kPa | 1130
352.1 K, 60000 kPa | 1134
352.1 K, 70000 kPa | 1137
352.1 K, 80000 kPa | 1141
352.1 K, 90000 kPa | 1144
352.1 K, 100000 kPa | 1148
352.1 K, 110000 kPa | 1151
352.1 K, 120000 kPa | 1154
352.1 K, 130000 kPa | 1157
352.1 K, 140000 kPa | 1160
352.1 K, 150000 kPa | 1164
352.1 K, 160000 kPa | 1166
352.1 K, 170000 kPa | 1169
352.1 K, 180000 kPa | 1172
352.1 K, 190000 kPa | 1175
352.1 K, 200000 kPa | 1178
353.15 K, 101.33 kPa | 1108.8
372.2 K, 10000 kPa | 1101
372.2 K, 20000 kPa | 1105
372.2 K, 30000 kPa | 1110
372.2 K, 40000 kPa | 1114
372.2 K, 50000 kPa | 1118
372.2 K, 60000 kPa | 1122
372.2 K, 70000 kPa | 1126
372.2 K, 80000 kPa | 1129
372.2 K, 90000 kPa | 1133
372.2 K, 100000 kPa | 1137
372.2 K, 110000 kPa | 1140
372.2 K, 120000 kPa | 1143
372.2 K, 130000 kPa | 1147
372.2 K, 140000 kPa | 1150
372.2 K, 150000 kPa | 1153
372.2 K, 160000 kPa | 1156
372.2 K, 170000 kPa | 1159
372.2 K, 180000 kPa | 1162
372.2 K, 190000 kPa | 1165
372.2 K, 200000 kPa | 1168
392.4 K, 10000 kPa | 1088
392.4 K, 20000 kPa | 1093
392.4 K, 30000 kPa | 1098
392.4 K, 40000 kPa | 1102
392.4 K, 50000 kPa | 1106
392.4 K, 60000 kPa | 1110
392.4 K, 70000 kPa | 1114
392.4 K, 80000 kPa | 1118
392.4 K, 90000 kPa | 1122
392.4 K, 100000 kPa | 1126
392.4 K, 110000 kPa | 1129
392.4 K, 120000 kPa | 1133
392.4 K, 130000 kPa | 1136
392.4 K, 140000 kPa | 1139
392.4 K, 150000 kPa | 1143
392.4 K, 160000 kPa | 1146
392.4 K, 170000 kPa | 1149
392.4 K, 180000 kPa | 1152
392.4 K, 190000 kPa | 1155
392.4 K, 200000 kPa | 1158
412.4 K, 10000 kPa | 1076
412.4 K, 20000 kPa | 1081
412.4 K, 30000 kPa | 1086
412.4 K, 40000 kPa | 1090
412.4 K, 50000 kPa | 1095
412.4 K, 60000 kPa | 1099
412.4 K, 70000 kPa | 1103
412.4 K, 80000 kPa | 1107
412.4 K, 90000 kPa | 1111
412.4 K, 100000 kPa | 1115
412.4 K, 110000 kPa | 1119
412.4 K, 120000 kPa | 1122
412.4 K, 130000 kPa | 1126
412.4 K, 140000 kPa | 1129
412.4 K, 150000 kPa | 1132
412.4 K, 160000 kPa | 1136
412.4 K, 170000 kPa | 1139
412.4 K, 180000 kPa | 1142
412.4 K, 190000 kPa | 1145
412.4 K, 200000 kPa | 1148
432.2 K, 10000 kPa | 1064
432.2 K, 20000 kPa | 1069
432.2 K, 30000 kPa | 1074
432.2 K, 40000 kPa | 1079
432.2 K, 50000 kPa | 1084
432.2 K, 60000 kPa | 1088
432.2 K, 70000 kPa | 1093
432.2 K, 80000 kPa | 1097
432.2 K, 90000 kPa | 1101
432.2 K, 100000 kPa | 1105
432.2 K, 110000 kPa | 1109
432.2 K, 120000 kPa | 1112
432.2 K, 130000 kPa | 1116
432.2 K, 140000 kPa | 1119
432.2 K, 150000 kPa | 1123
432.2 K, 160000 kPa | 1126
432.2 K, 170000 kPa | 1130
432.2 K, 180000 kPa | 1133
432.2 K, 190000 kPa | 1136
432.2 K, 200000 kPa | 1139
